PubChem BioAssay (NCI)
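Protocol summary: plate cells (96-well), add compound at 5 concentrations, incubate 48 h, interpolate endpoints linearly. GI50 = concentration required for 50% inhibition of growth. At the TGI there is no net growth.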

How the values were obtained:
Assay in all cases: DTP human tumour cell line panel, 48 h
COLO 205 colon = test system: COLO 205 colon
UACC-257 melanoma = test system: UACC-257 melanoma
CAKI-1 renal = test system: CAKI-1 renal
SNB-75 CNS = test system: SNB-75 CNS
TK-10 renal = test system: TK-10 renal
UO-31 renal = test system: UO-31 renal
NCI-H23 lung = test system: NCI-H23 lung
RXF 393 renal = test system: RXF 393 renal
HCT-116 colon = test system: HCT-116 colon
MCF7 breast = test system: MCF7 breast

CC(C)(C)c1cc(C(O)(C(F)(F)F)C(F)(F)F)c2c(c1)C(C(F)(F)F)(C(F)(F)F)OC(c1ccccc1)(C(C)(C)C)N2 (centres undefined)
TGI (COLO 205 colon): 16.1 µM | TGI (UACC-257 melanoma): 19.7 µM | TGI (CAKI-1 renal): 16.4 µM | TGI (SNB-75 CNS): 15.1 µM | TGI (TK-10 renal): 14.2 µM | TGI (UO-31 renal): 15.2 µM | TGI (NCI-H23 lung): 10.3 µM | TGI (RXF 393 renal): 12.3 µM | TGI (HCT-116 colon): 13.2 µM

Cc1ccccc1NC(=O)c1[nH]c(=S)nc(N)c1-c1ccccc1C
TGI (COLO 205 colon): > 100 µM | TGI (UACC-257 melanoma): > 100 µM | TGI (CAKI-1 renal): > 100 µM | TGI (SNB-75 CNS): 76.1 µM | TGI (TK-10 renal): > 100 µM | TGI (UO-31 renal): > 100 µM | TGI (NCI-H23 lung): > 100 µM | TGI (RXF 393 renal): > 100 µM | TGI (HCT-116 colon): > 100 µM

C=C1C(=O)O[C@H]2[C@H]1CC/C(COC(=O)CCC(=O)OC/C1=C/CC[C@@]3(C)O[C@H]3[C@H]3OC(=O)C(=C)[C@@H]3CC1)=C\CC[C@@]1(C)O[C@@H]21
GI50 (COLO 205 colon): 0.455 µM | TGI (COLO 205 colon): 1.74 µM | GI50 (UACC-257 melanoma): 1.52 µM | TGI (UACC-257 melanoma): 3.39 µM | GI50 (SNB-75 CNS): 15.1 µM | TGI (SNB-75 CNS): 45.7 µM | GI50 (TK-10 renal): 1.75 µM | TGI (TK-10 renal): 3.38 µM | GI50 (UO-31 renal): 1.02 µM | TGI (UO-31 renal): 2.39 µM | GI50 (NCI-H23 lung): 2.9 µM | TGI (NCI-H23 lung): 11.2 µM | GI50 (RXF 393 renal): 0.661 µM | TGI (RXF 393 renal): 2.17 µM

Cc1cc(Cl)ccc1N1C(=O)C(=O)C(c2nc3ccccc3s2)C(=O)C1=O
TGI (COLO 205 colon): > 100 µM | TGI (UACC-257 melanoma): > 100 µM | TGI (CAKI-1 renal): > 100 µM | TGI (SNB-75 CNS): > 100 µM | TGI (TK-10 renal): > 100 µM | TGI (UO-31 renal): > 100 µM | TGI (NCI-H23 lung): > 100 µM | TGI (HCT-116 colon): > 100 µM

NC(=O)NC(=O)CI
GI50 (COLO 205 colon): 1.91 µM | TGI (COLO 205 colon): 3.73 µM | GI50 (UACC-257 melanoma): 3.96 µM | TGI (UACC-257 melanoma): 13.4 µM | GI50 (CAKI-1 renal): 2.32 µM | TGI (CAKI-1 renal): 5.51 µM | GI50 (SNB-75 CNS): 15.2 µM | TGI (SNB-75 CNS): 29.4 µM | GI50 (UO-31 renal): 1.68 µM | TGI (UO-31 renal): 3.19 µM | GI50 (MCF7 breast): 3.33 µM | TGI (MCF7 breast): 16.6 µM | GI50 (NCI-H23 lung): 5.75 µM | TGI (NCI-H23 lung): 21 µM | GI50 (RXF 393 renal): 5.97 µM | TGI (RXF 393 renal): 18.3 µM | GI50 (HCT-116 colon): 1.39 µM | TGI (HCT-116 colon): 3.12 µM

O=C(Nc1ccccc1Cl)c1ccc(NC2=C(Cl)C(=O)N(Cc3ccccc3)C2=O)cc1
GI50 (COLO 205 colon): 51.3 µM | TGI (COLO 205 colon): > 100 µM | GI50 (UACC-257 melanoma): 38.8 µM | TGI (UACC-257 melanoma): > 100 µM | GI50 (CAKI-1 renal): 43.5 µM | TGI (CAKI-1 renal): > 100 µM | GI50 (TK-10 renal): 46.7 µM | TGI (TK-10 renal): > 100 µM | GI50 (UO-31 renal): > 100 µM | TGI (UO-31 renal): > 100 µM | GI50 (MCF7 breast): 17.2 µM | TGI (MCF7 breast): 36 µM | GI50 (NCI-H23 lung): 19.2 µM | TGI (NCI-H23 lung): 35.7 µM | GI50 (RXF 393 renal): 18.4 µM | TGI (RXF 393 renal): 38.2 µM | GI50 (HCT-116 colon): 21.4 µM | TGI (HCT-116 colon): 47.5 µM

Cc1ccc(S(=O)(=O)N2CCCCC2CCO)cc1 (centres undefined)
TGI (COLO 205 colon): > 100 µM | TGI (UACC-257 melanoma): > 100 µM | TGI (CAKI-1 renal): > 100 µM | TGI (SNB-75 CNS): > 100 µM | TGI (TK-10 renal): > 100 µM | TGI (UO-31 renal): > 100 µM | TGI (NCI-H23 lung): > 100 µM | TGI (RXF 393 renal): > 100 µM | TGI (HCT-116 colon): > 100 µM

O=C1C(c2ccccc2)=C(c2ccccc2)C(c2ccccc2)/C1=C1\C(=O)C(c2ccccc2)=C(c2ccccc2)C1c1ccccc1 (centres undefined)
TGI (COLO 205 colon): > 100 µM | TGI (UACC-257 melanoma): > 100 µM | TGI (CAKI-1 renal): > 100 µM | TGI (SNB-75 CNS): > 100 µM | TGI (TK-10 renal): > 100 µM | TGI (UO-31 renal): > 100 µM | TGI (NCI-H23 lung): > 100 µM | TGI (RXF 393 renal): > 100 µM | TGI (HCT-116 colon): > 100 µM

O=S1(=O)CSc2ccc3ccccc3c2-c2c1ccc1ccccc21
TGI (COLO 205 colon): > 100 µM | TGI (UACC-257 melanoma): > 100 µM | TGI (CAKI-1 renal): > 100 µM | TGI (SNB-75 CNS): > 100 µM | TGI (TK-10 renal): > 100 µM | TGI (UO-31 renal): > 100 µM | TGI (NCI-H23 lung): > 100 µM | TGI (RXF 393 renal): > 100 µM | TGI (HCT-116 colon): > 100 µM

Cc1cccc(C)c1NC(=O)C(=O)C1C(=O)N(c2ccccc2)N=C1N (centres undefined)
TGI (COLO 205 colon): > 100 µM | TGI (UACC-257 melanoma): > 100 µM | TGI (CAKI-1 renal): > 100 µM | TGI (SNB-75 CNS): > 100 µM | TGI (TK-10 renal): > 100 µM | TGI (UO-31 renal): > 100 µM | TGI (NCI-H23 lung): > 100 µM | TGI (RXF 393 renal): > 100 µM | TGI (HCT-116 colon): > 100 µM

CC(C)(C)c1ccccc1NS(=O)(=O)c1ccccc1
TGI (UACC-257 melanoma): > 100 µM | TGI (CAKI-1 renal): > 100 µM | TGI (SNB-75 CNS): > 100 µM | TGI (TK-10 renal): > 100 µM | TGI (UO-31 renal): > 100 µM | TGI (NCI-H23 lung): > 100 µM | TGI (RXF 393 renal): > 100 µM | TGI (HCT-116 colon): > 100 µM

COc1ccc(C2CC(c3cc(OC)c(OC)c(OC)c3)=NN2)cc1 (centres undefined)
GI50 (COLO 205 colon): 4 µM | TGI (COLO 205 colon): 31 µM | GI50 (UACC-257 melanoma): 43.4 µM | TGI (UACC-257 melanoma): > 100 µM | GI50 (CAKI-1 renal): 7.39 µM | TGI (CAKI-1 renal): 63.5 µM | GI50 (TK-10 renal): 42 µM | TGI (TK-10 renal): > 100 µM | GI50 (UO-31 renal): 4.82 µM | TGI (UO-31 renal): > 100 µM | GI50 (MCF7 breast): 2.78 µM | TGI (MCF7 breast): 27.1 µM | GI50 (NCI-H23 lung): 12.9 µM | TGI (NCI-H23 lung): > 100 µM | GI50 (RXF 393 renal): 9.71 µM | TGI (RXF 393 renal): 92 µM | GI50 (HCT-116 colon): 3.93 µM | TGI (HCT-116 colon): > 100 µM

Cc1cc(S(N)(=O)=O)c(S/C(=N\NS(=O)(=O)c2ccc(Cl)cc2)c2ccc(Cl)cc2)cc1Cl
GI50 (COLO 205 colon): 85.2 µM | TGI (COLO 205 colon): > 100 µM | GI50 (UACC-257 melanoma): > 100 µM | TGI (UACC-257 melanoma): > 100 µM | GI50 (CAKI-1 renal): > 100 µM | TGI (CAKI-1 renal): > 100 µM | GI50 (TK-10 renal): > 100 µM | TGI (TK-10 renal): > 100 µM | GI50 (UO-31 renal): > 100 µM | TGI (UO-31 renal): > 100 µM | GI50 (MCF7 breast): > 100 µM | TGI (MCF7 breast): > 100 µM | GI50 (NCI-H23 lung): 44.2 µM | TGI (NCI-H23 lung): > 100 µM | GI50 (RXF 393 renal): > 100 µM | TGI (RXF 393 renal): > 100 µM | GI50 (HCT-116 colon): > 100 µM | TGI (HCT-116 colon): > 100 µM

COc1ccccc1NC(=O)C1=C(C)NC(C)=C(C(=O)Nc2ccccc2OC)C1c1ccc(C(C)C)cc1
TGI (COLO 205 colon): > 100 µM | TGI (UACC-257 melanoma): > 100 µM | TGI (CAKI-1 renal): > 100 µM | TGI (SNB-75 CNS): > 100 µM | TGI (TK-10 renal): > 100 µM | TGI (UO-31 renal): > 100 µM | TGI (NCI-H23 lung): > 100 µM | TGI (HCT-116 colon): > 100 µM

CO/N=C1/c2cc(OC)ccc2-c2c(NOC)nc3ccccc3c21
GI50 (COLO 205 colon): 41.3 µM | TGI (COLO 205 colon): > 100 µM | GI50 (UACC-257 melanoma): 28.2 µM | TGI (UACC-257 melanoma): > 100 µM | GI50 (CAKI-1 renal): > 100 µM | TGI (CAKI-1 renal): > 100 µM | GI50 (SNB-75 CNS): 14.6 µM | TGI (SNB-75 CNS): 40.2 µM | GI50 (TK-10 renal): 16 µM | TGI (TK-10 renal): 39.7 µM | GI50 (UO-31 renal): 35.4 µM | TGI (UO-31 renal): > 100 µM | GI50 (MCF7 breast): 27.1 µM | TGI (MCF7 breast): > 100 µM | GI50 (NCI-H23 lung): 28.6 µM | TGI (NCI-H23 lung): 97.9 µM | GI50 (HCT-116 colon): 22.6 µM | TGI (HCT-116 colon): 49.2 µM

O=C(OCCOCCOC(=O)c1c[nH]cc1-c1ccccc1)c1c[nH]cc1-c1ccccc1
TGI (COLO 205 colon): 35.6 µM | TGI (UACC-257 melanoma): 33.1 µM | TGI (CAKI-1 renal): 83.1 µM | TGI (SNB-75 CNS): 36.7 µM | TGI (TK-10 renal): 80.1 µM | TGI (UO-31 renal): 31.4 µM | TGI (NCI-H23 lung): 33.7 µM | TGI (RXF 393 renal): 35.6 µM | TGI (HCT-116 colon): 31.6 µM

COc1ccc2c(CNCCCCO)cc3cc4c(cc3c2c1)OCO4
GI50 (COLO 205 colon): 1.36 µM | TGI (COLO 205 colon): 4.41 µM | GI50 (UACC-257 melanoma): 0.823 µM | TGI (UACC-257 melanoma): 2.88 µM | GI50 (CAKI-1 renal): 0.628 µM | TGI (CAKI-1 renal): 2.96 µM | GI50 (SNB-75 CNS): 2.02 µM | TGI (SNB-75 CNS): 6.67 µM | GI50 (TK-10 renal): 1.85 µM | TGI (TK-10 renal): 9.98 µM | GI50 (UO-31 renal): 0.21 µM | TGI (UO-31 renal): 4.12 µM | GI50 (NCI-H23 lung): 2.24 µM | TGI (NCI-H23 lung): 6.43 µM | GI50 (RXF 393 renal): 0.68 µM | TGI (RXF 393 renal): 2.49 µM | GI50 (HCT-116 colon): 0.609 µM | TGI (HCT-116 colon): 9.5 µM
